From patent US9096643B2, “Cell-protective peptides and uses thereof” (priority 2010, dated 2015)
Values joined by “and” are separate entries in the source; they are usually repeats but may differ in a detail not shown here. Equal entries are not always repeated. No end group written: not given here.

Assays:
[1] = test system: neonatal cardiomyocytes encapsulated in chitosan hydrogels; assay: Functional testing by electrical field stimulation (ET, MCR) of encapsulated cardiomyocytes; assay type: cell-based, rat
Excerpt: The electrical function of in vitro samples of neonatal cardiomyocytes encapsulated in chitosan hydrogels for 6 d was established by measuring excitation threshold (ET), the minimum voltage required to pace the encapsulated cells simultaneously, and maximum capture rate (MCR) as previously described, (Radisic, Park et al. 2004), the contents of which are incorporated by reference. The MCR is the maximum stimulation rate at which the encapsulated cardiomyocytes can be induced to beat simultaneously, the encapsulated samples were placed between a pair of carbon electrodes immersed in warm Tyrode solution (Sigma, pH 7.4). The ET was measured by stimulating the samples with square pulses of 2 ms width at a frequency of 1 Hz and increasing the output voltage of the stimulator until ˜90% of the cells in the field-of-view were beating synchronously with the stimulator output. The MCR was measured by setting the output at 15 V, and increasing the frequency until most of the cells in the sample were no longer synchronously beating with the driving signal. All measurements were taken using bright field microscopy. The samples were placed in an environmental chamber at 37° C. for the measurements (N=3/group).

[2] = test system: neonatal rat CMs (heart cells); assay: Immunostaining for cardiac troponin I on coated surfaces; assay type: cell-based, rat (Sprague-Dawley); conditions: day 8 of cultivation, vs Az-chitosan alone, FIG. 3
Experimental: The day before cells were ready to be seeded, the surfaces in the 12-well plates were sterilized by germicidal UV illumination overnight. The PBS surrounding the surfaces was then aspirated off and 100,000 live cells were pipetted onto each surface in 100 μL of culture media. These surfaces were left in the incubator for 20 to 30 min to allow the cells to begin to adhere, and then supplemented with 1 mL of warm CM media. The cells were cultivated for 8 days, with 100% culture media change every 2-3 days. The initial seeding density of heart cells on peptide-chitosan coated surfaces was 88 cells/mm^2. […] Each type of surface was created in triplicate.
The immunostaining against cardiac troponin I was performed on cells fixed with 4 w/v % paraformaldehyde (PFA, Sigma). The samples were submersed in a blocking solution composed of 10% normal horse serum (NHS, Vector Laboratories) in PBS for 40 min at room temperature. This solution was removed and the sample was submersed in a solution containing primary antibody for 1 hour at 37° C. […] Each sample was made in triplicate and five pictures were taken of each surface to have an adequate representation for quantification. The numbers of nuclei were determined by counting the number of DAPI stained nuclei using the cell counting plugin on ImageJ. The number of CMs was determined by counting the number of successfully stained Troponin I cells.

[3] = test system: Lewis rats; assay: Subcutaneous implantation of cardiomyocyte/hydrogel constructs and histological assessment
Experimental: Cardiac constructs were made by encapsulation of neonatal Lewis rat cardiomyocytes in Az-chitosan-QHREDGS or Az-chitosan-RGDS. A total of 2×10^6 cardiomyocytes were resuspended in 15 μL of ice cold cardiomyocytes medium with 30% FBS for at least 10 min. These cells were then encapsulated in 100 μL of the hydrogel in transwell plates and constructs (2 mm thick and 6 mm in diameter) were produced. A total of 8 samples were made for each type of hydrogel, and 4 from each group were implanted, while the other 4 were retained as in vitro controls. Samples were cultured at 37° C. for 5 d before they were implanted in vivo.
Cardiac constructs described above were inserted subcutaneously into the abdomen of Lewis rats. Four samples were implanted for each type of hydrogel. […] Quantification of total SMA and Factor VIII was performed using ImageScope v10 (Aperio Technologies) and mean intensities were averaged for six fields for each sample and normalized to total area. […] Apoptosis was assessed using a TUNEL assay (Roche Applied Science) following the manufacturer's standard protocol.

[4] = test system: human iPS cells; assay: EB differentiation of treated iPS cells; assay type: cell-based; conditions: after 5 passages of treatment, EB protocol
Experimental: Following 5 passages in continuous treatment, iPS cells were collected and differentiated into embryoid bodies (EB) containing cells of all three germ layers as described Itskovitz-Eldor, J. et al. Mol. Med. 6, 88-95 (2000). For further differentiation and analysis, EBs were plated onto 0.2% gelatin coated plates for another 10 days for attachment and fixed in 4% para-formaldehyde (Sigma) for immunohistochemistry.

[5] = test system: human iPS cells BJ1D; assay: iPS cell apoptosis, Apo-ONE Caspase 3/7; assay type: cell-based; conditions: 50 μM, five passages, vs PBS and scrambled peptide, FIG. 12A
Experimental: (§1) Human iPS cells were treated for 5 passages and levels of apoptosis were measured 3 days after passaging using the Apo-ONE Homogeneous Caspase assay (Promega) according to manufacturers instructions. The levels of Caspase 3/7 activation were proportional to levels of fluorescence. All statistical analyses were performed using the two-tailed student t-test assuming unequal variance. p<0.05 denote statistical significance.
(§2) IPS cells, BJ1D or 0901B, were treated with 5 μM or 50 μM of QHREDGS peptide, or 50 μM DGQESHR scrambled peptide in PBS with a PBS treated control for five passages and assayed for apoptosis using the APO One Caspase 3/7 system. The levels of Caspase 3/7 activation are proportional to fluorescence. […] Solid bars represent a statistical significance, p<0.05.

[6] = test system: human iPS cells 0901B; assay: iPS cell apoptosis, Apo-ONE Caspase 3/7; assay type: cell-based; conditions: 50 μM, five passages, vs PBS and scrambled peptide, FIG. 12B
Experimental: as §1, §2

[7] = test system: Human ESC-derived cardiac cells (Hes2); assay: TUNEL assay with cTnT co-localization of human ESC-derived cardiac cells; assay type: cell-based; conditions: 50 μM, FIG. 21
Experimental: Human ESC-derived cardiac cell culture, were derived from Day 20 EBs, consisting of greater than 50% cardiomyocytes obtained by directed differentiation of human ES (Hes2) cells as described by Yang et al. (Nature 453, 524-528 (2008)). EBs were dissociated using Collagenase I (Invitrogen) for 2 hrs and 0.05% Trypsin-EDTA (Invitrogen) for 5 min and plated at 40000 cells/cm^2 onto 0.2% gelatin-coated plates in Stempro 34 medium supplemented with VEGF (10 ng/ml) and DKK1 (150 ng/ml). Cells were cultured in the presence of 50 μM QHREDGS, 50 μM DGQESHR (Biomatik) or PBS until they formed a beating monolayer, around 10 days. Peptides were replenished during media changes every 3 days. 100 μM H2O2 (Sigma, dissolved in PBS) was added to culture media for 10 min, washed, and analyzed immediately for CFDA-Live/PI-Dead. Live cells were counted using the cell counter plug in for ImageJ. 0.5 μM or 2.5 μM taxol (Sigma, dissolved in DMSO) was added to culture media for 24 hrs, and the extent of apoptosis was analyzed immediately using the Apo-ONE Homogeneous Caspase Assay (Promega), or TUNEL assay (Roche) as described above. A PBS control was used for H2O2 and DMSO control was used for taxol.

[8] = 7 days after subcutaneous implantation

Substance | ET (excitation threshold) ([1]; after six days of cultivation) | MCR (maximum capture rate) ([1]; after six days of cultivation) | cardiomyocyte contraction under electrical field stimulation ([1]; end of cultivation period) | percentage of troponin I positive cells [2] | cardiomyocytes in implant (sarcomeric α-actinin, troponin I staining) [3, 8] | percentage of apoptotic cells (TUNEL) [3, 8] | apoptotic cardiomyocytes (troponin I and TUNEL double staining) ([3]; 7 days after subcutaneous implantation, vs RGDS modified hydrogel) | biomaterial degradation and cell infiltration (H&E) ([3]; day 7 after subcutaneous implantation) | percentage of SMA+ myofibroblasts ([3]; vs Az-chitosan-RGDS hydrogel) | differentiation into neural, mesodermal and endodermal cells [4] | Caspase 3/7 activity [5] | Caspase 3/7 activity [6] | reduction of basal apoptosis in cardiomyocytes (TUNEL/cTnT) [7]
Az-chitosan-QHREDGS: QHREDGS peptide covalently conjugated to Az-chitosan by EDC chemistry (also: covalently conjugated to Az-chitosan by EDC chemistry, site not given here) | 7.0 ± 0.4; V and 9.2 ± 0.6 V | 4.3 ± 0.1 pps | beat synchronously | increase in the percentage of troponin I positive cells | larger areas of cardiomyocytes | ~1.5% | fewer apoptotic cardiomyocytes | less cell infiltration | significantly higher percentage of SMA+ myofibroblasts | – | – | – | –
QHREDGS (angiopoietin 1 peptide) | – | – | – | – | – | – | – | – | – | retained the competence to differentiate | significant reduction of Caspase 3/7 activity | significant reduction of Caspase 3/7 activity | greater than 10 fold
